Earlier results, collected in US20230137840A1, “MINT MASK AND METHODS OF USE THEREOF” (Georgetown University, priority 2016, published 2023).

What was measured:
cough = conditions: guinea pigs
bronchoconstriction = conditions: guinea pigs
[1] = target: transient receptor potential melastatin 8 (TRPM8) (Homo sapiens, UniProt Q7Z2W7); conditions: present in cold-sensitive sensory neurons
[2] = tested on: upper airway resistance in normal subjects; conditions: inhaled; ten normal subjects
nasal resistance = conditions: several studies
[3] = tested on: cough after fiberoptic bronchoscopy; conditions: premedication with 1% menthol inhalation
chemical irritants = conditions: menthol vapor; irritants including acrolein, acetic acid, cyclohexanone
asthmatics = conditions: nebulized, 10 mg twice daily for four weeks; 23 asthmatics
[4] = target: transient receptor potential ankyrin 1 (TRPA1) (Homo sapiens, UniProt O75762); conditions: irritant-sensing channel
[5] = tested on: patients with chronic cough; conditions: menthol inhalation
cough reflex = conditions: menthol vapor; taste of sucrose

Chain of transient receptor potential melastatin 8 (TRPM8) (Q7Z2W7 whole entry, species assumed): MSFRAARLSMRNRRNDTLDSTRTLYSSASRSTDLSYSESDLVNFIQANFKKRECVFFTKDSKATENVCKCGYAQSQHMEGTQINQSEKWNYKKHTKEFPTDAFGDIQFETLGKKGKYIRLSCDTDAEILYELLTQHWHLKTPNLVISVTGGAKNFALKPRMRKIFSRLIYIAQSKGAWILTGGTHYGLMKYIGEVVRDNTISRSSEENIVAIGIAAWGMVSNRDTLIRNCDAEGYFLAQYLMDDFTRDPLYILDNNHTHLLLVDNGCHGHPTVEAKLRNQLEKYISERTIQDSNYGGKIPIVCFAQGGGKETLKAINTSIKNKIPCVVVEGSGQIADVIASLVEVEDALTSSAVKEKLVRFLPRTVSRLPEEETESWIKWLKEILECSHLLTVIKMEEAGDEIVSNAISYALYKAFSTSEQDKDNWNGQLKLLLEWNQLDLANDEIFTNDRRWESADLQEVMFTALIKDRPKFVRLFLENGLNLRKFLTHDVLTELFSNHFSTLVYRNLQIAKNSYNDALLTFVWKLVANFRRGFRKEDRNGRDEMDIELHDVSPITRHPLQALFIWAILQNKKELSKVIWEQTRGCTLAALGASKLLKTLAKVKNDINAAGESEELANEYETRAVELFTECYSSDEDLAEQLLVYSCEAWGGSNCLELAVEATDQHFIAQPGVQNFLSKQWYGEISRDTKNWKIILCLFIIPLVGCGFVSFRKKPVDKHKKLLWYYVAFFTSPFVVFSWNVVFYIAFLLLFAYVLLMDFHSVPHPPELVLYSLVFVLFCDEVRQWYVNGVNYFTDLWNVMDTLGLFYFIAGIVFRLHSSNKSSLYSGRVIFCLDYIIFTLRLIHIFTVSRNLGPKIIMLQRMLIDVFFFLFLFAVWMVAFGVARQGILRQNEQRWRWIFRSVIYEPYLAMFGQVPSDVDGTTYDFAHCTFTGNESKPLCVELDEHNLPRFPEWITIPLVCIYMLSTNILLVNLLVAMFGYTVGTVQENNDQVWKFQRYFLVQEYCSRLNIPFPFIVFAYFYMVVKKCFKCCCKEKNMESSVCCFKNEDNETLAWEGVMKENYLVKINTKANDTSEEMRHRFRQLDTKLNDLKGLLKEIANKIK
Chain of transient receptor potential ankyrin 1 (TRPA1) (O75762 whole entry, species assumed): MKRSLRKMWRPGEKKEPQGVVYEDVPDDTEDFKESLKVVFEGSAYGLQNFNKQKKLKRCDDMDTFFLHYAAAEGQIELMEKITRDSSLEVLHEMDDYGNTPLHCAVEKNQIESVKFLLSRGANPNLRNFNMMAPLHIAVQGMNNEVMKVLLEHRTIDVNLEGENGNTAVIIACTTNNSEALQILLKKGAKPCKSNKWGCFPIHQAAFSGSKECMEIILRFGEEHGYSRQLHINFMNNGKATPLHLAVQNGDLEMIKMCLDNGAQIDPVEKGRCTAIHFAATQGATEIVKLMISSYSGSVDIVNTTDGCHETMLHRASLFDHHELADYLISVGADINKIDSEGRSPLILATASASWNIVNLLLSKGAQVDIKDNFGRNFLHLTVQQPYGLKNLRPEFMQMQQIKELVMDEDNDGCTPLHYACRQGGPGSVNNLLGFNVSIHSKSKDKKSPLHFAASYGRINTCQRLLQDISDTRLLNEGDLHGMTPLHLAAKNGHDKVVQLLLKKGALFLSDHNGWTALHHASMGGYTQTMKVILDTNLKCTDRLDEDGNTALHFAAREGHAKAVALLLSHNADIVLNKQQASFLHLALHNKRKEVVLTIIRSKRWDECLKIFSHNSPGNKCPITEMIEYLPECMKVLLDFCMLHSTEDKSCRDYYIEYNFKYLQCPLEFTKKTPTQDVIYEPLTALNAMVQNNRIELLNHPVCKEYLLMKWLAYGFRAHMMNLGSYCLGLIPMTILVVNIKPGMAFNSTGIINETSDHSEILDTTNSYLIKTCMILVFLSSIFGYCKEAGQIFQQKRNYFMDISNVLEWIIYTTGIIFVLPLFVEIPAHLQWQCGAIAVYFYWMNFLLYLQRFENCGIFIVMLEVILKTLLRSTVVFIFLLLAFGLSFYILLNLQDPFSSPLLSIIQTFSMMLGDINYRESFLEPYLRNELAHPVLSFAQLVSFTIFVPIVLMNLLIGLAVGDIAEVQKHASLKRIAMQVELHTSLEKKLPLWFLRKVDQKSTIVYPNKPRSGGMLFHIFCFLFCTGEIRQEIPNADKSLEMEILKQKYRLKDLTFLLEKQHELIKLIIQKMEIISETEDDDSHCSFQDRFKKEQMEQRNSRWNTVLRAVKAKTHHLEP

## CC(C)[C@@H]1CC[C@@H](C)C[C@H]1O [menthol, (1R,2S,5R)-2-Isopropyl-5-methylcyclohexanol]
cough
  antitussive (cough suppressant) effect: antitussive (cough suppressant) effects
bronchoconstriction
  capsaicin-induced bronchoconstriction: attenuates
  neurokinin A-induced bronchoconstriction: attenuates
[1]
  interaction with TRPM8: interacts
[2]
  effect on upper airway resistance: no effect
Nasal resistance
  effect on nasal resistance: no effect
[3]
  effect on cough after fiberoptic bronchoscopy: no effect
Chemical irritants
  reactivity to chemical irritants: reduces reactivity
Bronchial smooth muscle
  bronchial contraction due to high extracellular potassium: inhibits
  bronchial contraction due to methacholine: inhibits
asthmatics
  diurnal variation in peak expiratory flow rate (PEER): decreased
  effect on FEV1 (forced expiratory volume at 1 second): no effect
  effect on VC (vital capacity): no effect
  use of metered dose inhalers: reduced use
  wheezing episodes: reduced wheezing episodes
[4]
  interaction with TRPA1: interacts
[5]
  cough sensitivity to inhaled capsaicin: reduced cough sensitivity
  effect on inspiratory flows: had an effect
Cough reflex
  cough reflex to capsaicin challenge: reduced cough reflex
bronchi
  relaxation of bronchi preconstricted with acetylcholine or potassium chloride: relaxes

## OC[C@H]1O[C@@](CO)(O[C@H]2O[C@H](CO)[C@@H](O)[C@H](O)[C@H]2O)[C@@H](O)[C@@H]1O [sucrose]
Cough reflex
  cough reflex to capsaicin challenge: reduced cough reflex
